The target of this experiment is Factor XIa (Homo sapiens, UniProt P03951). The experiment can be described thus: Factor XIa inhibition assay utilizing a fluorophore-quencher pair peptide substrate (FLINT). The format is biochemical. The settings on record: end point read at 30 min; 30 min preincubation; 5Fam-KLTRAETV-K5Tamra substrate; read-out: FXIa (EP) IC50. The text has this: Biological Example 1: Factor XIa Inhibition Assay Utilizing a Fluorophore-Quencher Pair Peptide Substrate
Sequence of Factor XIa (P03951 388-625 limits assumed): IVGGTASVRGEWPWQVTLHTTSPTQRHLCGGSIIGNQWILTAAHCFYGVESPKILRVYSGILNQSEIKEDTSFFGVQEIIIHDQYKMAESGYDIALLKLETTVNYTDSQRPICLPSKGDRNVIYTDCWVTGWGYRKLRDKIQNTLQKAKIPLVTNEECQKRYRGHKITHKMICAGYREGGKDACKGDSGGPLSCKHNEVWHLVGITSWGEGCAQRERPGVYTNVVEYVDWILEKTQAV
Sequence of Factor XIa (P03951 19-387 partner limits assumed): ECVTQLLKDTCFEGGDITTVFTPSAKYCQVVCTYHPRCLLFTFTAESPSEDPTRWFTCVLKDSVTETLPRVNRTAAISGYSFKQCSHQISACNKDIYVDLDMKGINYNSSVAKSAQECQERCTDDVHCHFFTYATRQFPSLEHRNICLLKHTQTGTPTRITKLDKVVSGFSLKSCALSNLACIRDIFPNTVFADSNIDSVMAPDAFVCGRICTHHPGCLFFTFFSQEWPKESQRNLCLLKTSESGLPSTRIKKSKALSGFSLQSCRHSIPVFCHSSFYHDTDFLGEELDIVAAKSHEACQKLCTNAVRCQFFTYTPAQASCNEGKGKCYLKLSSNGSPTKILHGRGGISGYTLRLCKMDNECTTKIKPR
A fluorescence intensity (FLINT) based assay was used to monitor inhibition of Factor XIa. The peptide substrate, 5Fam-KLTRAETV-K5Tamra (purchased from New England Peptide) was chosen based on the […]. Conversion of zymogen […]. The custom peptide used in this assay was based on the Arg146 cleavage site of FXI. The peptide substrate was designed with a fluorophore-quencher pair, where the fluorescence is quenched until FXIa cleaves the 8-mer peptide after the Arg residue. The substrate KM was fit to a substrate inhibition model whereby kcat=0.86 s^−1, KM=12.4 μM, Ki=61.6 μM with an enzymatic efficiency, and kcat/KM=69523 M^−1s^−1.
The Factor XIa FLINT assay was used with the following 5Fam-KLTRAETV-K5Tamra assay buffer: 50 mM Tris, pH 7.5, 100 mM NaCl, 5 mM CaCl2, 0.1 mg/mL BSA, 0.03% CHAPS. Assay buffer was prepared by mixing all ingredients fresh. 5Fam-KLTRAETV-K5Tamra peptide substrate was first prepared at 10 mM in 100% DMSO, then diluted to 3 mM in 100% DMSO. Assay buffer was then added directly to the 3 mM stock of substrate to prepare the 30 μM 2× working concentration (15 μM final concentration). The 2× Factor XIa stock solution was prepared by diluting 6.562 μM stock in 1× assay buffer for a 200 pM working stock solution (100 pM final concentration).
Test compound(s) were run in an 11-point, 3-fold serial dilution with a final top compound concentration of 100 nM. Final DMSO in assay was 2%. FXIa was preincubated with compound for 30-minutes and then substrate was added to initiate the reaction. The assay was run with either end point (EP) reads at 30 min or kinetic (KIN) reads at 5 min intervals over 30 minutes. The time course was linear using 100 μM FXIa greater than 30 minutes. More specifically, the assay was run as follows: • 100 nL of 0.01 mM test compound was dispensed into black 384-well non-binding Greiner BioOne 784900 plate for 0.1 μM final concentration; • 5 μL of 1× assay buffer was dispensed to column 24 (low control) and 5 μL 2× Factor XIa solution was dispensed to columns 1-23 (column 23 high control); • the plate was centrifuged with a “cover” plate at 500 rpm for 1 min the plate was pre-incubated for 30 minutes at room temperature with plate covered; • 5 μL of 2× 5Fam-KLTRAETV-K5Tamra peptide substrate was dispensed into the entire plate, columns 1-24; • the plate was centrifuged with a “cover” plate at 500 rpm for 1 min; • the plate was read monitoring fluorescence intensity on the BMG PHERAStar at room temperature, using fluorescence module 485 nm/520 nm.
Percent inhibition (IC50) curves were generated per compound tested, and data was analyzed using a 4-parameter logistic fit using GeneData Screener. The relative fluorescence unit (RFU) values were normalized to percent inhibition using the following equation: % inhibition=((HC−LC)−(compound−LC)/(HC−LC))*100 where LC—low control=mean signal of no Factor XIa or 100% inhibition of Factor XIa; HC—high control=mean signal of Factor XIa+5Fam-KLTRAETV-K5Tamra peptide substrate with DMSO only.
An 11-point dose response curve for the test compound(s) was generated using GENDATA to determine IC50 value based on the following equation: Y=Bottom+(Top−Bottom)/(1+10^((log IC50−X)*HillSlope))
where Y is the % inhibition in the presence of X inhibitor concentration, Top=high control=mean signal of Factor XIa+5Fam-KLTRAETV-K5Tamra peptide substrate with DMSO only; Bottom=low control−mean signal of no Factor XIa or 100% inhibition of Factor XIa; HillSlope—Hill coefficient; and IC50=concentration of compound with 50% inhibition in relation to top/high control. […]
For `O=C(O)c1ccc(-c2ccn(C3CCc4cc(-c5cc(Cl)ccc5-n5cnnn5)c[n+]([O-])c43)n2)cc1` (racemic) [ID No. 3, 7-(3-(4-Carboxyphenyl)-1H-pyrazol-1-yl)-3-(5-chloro-2-(1H-tetrazol-1-yl)phenyl)-6,7-dihydro-5H-cyclopenta[b]pyridine 1-oxide], the IC50 was 320 nM.

Take `O=C(O)c1cccc(-c2ccn(C3CCc4cc(-c5cc(Cl)ccc5-n5cnnn5)c[n+]([O-])c43)n2)c1` (racemic) [ID No. 4, 7-(3-(3-Carboxyphenyl)-1H-pyrazol-1-yl)-3-(5-chloro-2-(1H-tetrazol-1-yl)phenyl)-6,7-dihydro-5H-cyclopenta[b]pyridine 1-oxide]: the half-inhibitory concentration (IC50) worked out at 1010 nM.

Turning to `COC(=O)Nc1ccc(-c2ccn(C3CCc4cc(-c5cc(Cl)ccc5-n5cnnn5)c[n+]([O-])c43)n2)cc1` (racemic) [ID No. 5, 3-(5-Chloro-2-(1H-tetrazol-1-yl)phenyl)-7-(3-(4-((methoxycarbonyl)amino)phenyl)-1H-pyrazol-1-yl)-6,7-dihydro-5H-cyclopenta[b]pyridine 1-oxide], the IC50 is 109 nM.

`O=C(O)c1cccc(-c2cnn(C3CCc4cc(-c5cc(Cl)ccc5-n5cnnn5)c[n+]([O-])c43)c2)c1` (racemic) [ID No. 6, 7-(4-(3-Carboxyphenyl)-1H-pyrazol-1-yl)-3-(5-chloro-2-(1H-tetrazol-1-yl)phenyl)-6,7-dihydro-5H-cyclopenta[b]pyridine 1-oxide]: the IC50 was 79 nM.

Turning to `COC(=O)Nc1ccc(-c2cnn(C3CCc4cc(-c5cc(Cl)ccc5-n5cnnn5)c[n+]([O-])c43)c2)cc1` (racemic) [ID No. 7, 3-(5-Chloro-2-(1H-tetrazol-1-yl)phenyl)-7-(4-(4-((methoxycarbonyl)amino)phenyl)-1H-pyrazol-1-yl)-6,7-dihydro-5H-cyclopenta[b]pyridine 1-oxide], the IC50 is 9 nM.

Regarding `Nc1ccc(-c2cnn(C3CCc4cc(-c5cc(Cl)ccc5-n5cnnn5)c[n+]([O-])c43)c2)c(F)n1` (racemic) [ID No. 10, 7-(4-(6-Amino-2-fluoropyridin-3-yl)-1H-pyrazol-1-yl)-3-(5-chloro-2-(1H-tetrazol-1-yl)phenyl)-6,7-dihydro-5H-cyclopenta[b]pyridine 1-oxide], the IC50 was 27 nM.

Take `Nc1ccc(-c2cnn(C3CCc4cc(-c5c(-n6cnnn6)ccc(Cl)c5F)c[n+]([O-])c43)c2)c(F)n1` (racemic) [ID No. 11, 7-(4-(6-Amino-2-fluoropyridin-3-yl)-1H-pyrazol-1-yl)-3-(3-chloro-2-fluoro-6-(1H-tetrazol-1-yl)phenyl)-6,7-dihydro-5H-cyclopenta[b]pyridine 1-oxide]: the IC50 amounted to 11 nM.

As for `Nc1ccc(-c2cnn(C3CCc4cc(-c5cc(Cl)ccc5-n5cnnn5)c[n+]([O-])c43)c2)cc1` (racemic) [ID No. 12, 7-(4-(4-Aminophenyl)-1H-pyrazol-1-yl)-3-(5-chloro-2-(1H-tetrazol-1-yl)phenyl)-6,7-dihydro-5H-cyclopenta[b]pyridine 1-oxide], the IC50 was 220 nM.

`COC(=O)Nc1ccc(-c2cnn(C3CCc4cc(-c5cc(Cl)ccc5OCC(F)(F)F)c[n+]([O-])c43)c2)cc1` (racemic) [ID No. 15, 3-(5-Chloro-2-(2,2,2-trifluoroethoxy)phenyl)-7-(4-(4-((methoxycarbonyl)amino)phenyl)-1H-pyrazol-1-yl)-6,7-dihydro-5H-cyclopenta[b]pyridine 1-oxide]: the IC50 amounted to 1690 nM.

Consider `COC(=O)Nc1ccc(-c2cnn(C3CCc4cc(-c5c(-n6cnnn6)ccc(Cl)c5F)c[n+]([O-])c43)c2)cc1` (single isomer, unassigned) [ID No. 8, (R*)3-(3-Chloro-2-fluoro-6-(1H-tetrazol-1-yl)phenyl)-7-(4-(4-((methoxycarbonyl)amino)phenyl)-1H-pyrazol-1-yl)-6,7-dihydro-5H-cyclopenta[b]pyridine 1-oxide], for which the IC50 came out at 3260 nM.

On to `COC(=O)Nc1ccc(-c2cn(C3CCc4cc(-c5c(-n6cnnn6)ccc(Cl)c5F)c[n+]([O-])c43)nc2C)cc1` (single isomer, unassigned) [ID No. 13, (R*)3-(3-Chloro-2-fluoro-6-(1H-tetrazol-1-yl)phenyl)-7-(4-(4-((methoxycarbonyl)amino)phenyl)-3-methyl-1H-pyrazol-1-yl)-6,7-dihydro-5H-cyclopenta[b]pyridine 1-oxide], for which the IC50 amounted to 837 nM.

With `COC(=O)Nc1ccc(-c2cn(C3CCc4cc(-c5c(-n6cnnn6)ccc(Cl)c5F)c[n+]([O-])c43)nc2C)cc1` (single isomer, unassigned) [ID No. 14, (S*)-3-(3-Chloro-2-fluoro-6-(1H-tetrazol-1-yl)phenyl)-7-(4-(4-((methoxycarbonyl)amino)phenyl)-3-methyl-1H-pyrazol-1-yl)-6,7-dihydro-5H-cyclopenta[b]pyridine 1-oxide], the IC50 came to 16 nM.

Regarding `O=C(O)c1ccc2nn(C3CCc4cc(-c5cc(Cl)ccc5-n5cnnn5)c[n+]([O-])c43)cc2c1` (centres unmarked) [ID No. 1, 7-(5-Carboxy-2H-indazol-2-yl)-3-(5-chloro-2-(1H-tetrazol-1-yl)phenyl)-6,7-dihydro-5H-cyclopenta[b]pyridine 1-oxide], the IC50 amounted to 2850 nM.

As to `COC(=O)Nc1ccc(-c2cnn([C@@H]3CCc4cc(-c5c(-n6cnnn6)ccc(Cl)c5F)c[n+]([O-])c43)c2)cc1` [ID No. 9, (R)-3-(3-chloro-2-fluoro-6-(1H-tetrazol-1-yl)phenyl)-7-(4-(4-((methoxycarbonyl)amino)phenyl)-1H-pyrazol-1-yl)-6,7-dihydro-5H-cyclopenta[b]pyridine 1-oxide], the IC50 came out at 3 nM.

As a reminder, the IC50 is the midpoint of a concentration-inhibition curve.

(Values after US11845748B2, “Bicyclic pyridine N-oxide derivatives useful as a factor XIa inhibitors” (Janssen Pharmaceutica NV, priority 2021, dated 2023).)
